What all share (format): cell-based, Staphylococcus aureus
The test system of assay [1] is Staph aureus 1146. Kind of assay: MIC in Mueller-Hinton Broth with 50% pooled inactivated human serum, Assay 1, Table 12. The conditions noted are these: Staph aureus 1146, Assay 1, 50% human serum. A digest of the protocol: (§1)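 MIC values in μg/ml, taken as lowest drug concentration without macroscopically visible growth, geometric mean where run repeatedly. For serum-shifted testing, strains grew in Mueller-Hinton Broth plus 50% pooled inactivated human serum; otherwise CLSI M7-A7 microtiter dilution, M100-S16 interpretation.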

Assay [2] deals with Staph aureus 1031. Kind of assay: MIC in Mueller-Hinton Broth with 50% pooled inactivated human serum, Assay 2, Table 12 column G. The conditions noted are these: for MIC, column G: Staph aureus 1031, Assay 2, 50% human serum; for MIC: Staphylococcus aureus, 1031, Staph aureus 1031, Assay 2, 50% human serum. As to the method:
(§2) The assays described herein include a panel of bacterial isolates of Staphylococcus aureus. Assay 1 comprises the strains noted in Columns A through E, and Assay 2 comprises the strains noted in Columns F through H. The assays are performed in microtiter trays according to Methods for Dilution Antimicrobial Susceptibility Tests for Bacteria that Grow Aerobically; Approved Standard-7th edition (M7-A7) and interpreted according to the Performance Standards for Antimicrobial Susceptibility Testing; 16th Informational Supplement (M100-S16) published by Clinical Laboratory Standards Institute (CLSI). The antibacterial activity is presented in the form of a minimum inhibitory concentration (MIC) value in μg/ml format. The MIC value represents the lowest concentration of drug measured which prevented macroscopically visible growth under the conditions and specific doses tested. The compounds were initially dissolved in DMSO as 30 mM stocks and diluted accordingly to adjust to a concentration of 10 mg/ml or the compounds were dissolved in DMSO at a concentration of 10 mg/ml. For assessment of activity in the presence of human serum, S. aureus 1146 and S. aureus 1031 were inoculated into Mueller-Hinton Broth with 50% pooled inactivated human serum. In some cases, compounds were tested more than once in a particular assay. Where noted, the MIC value shown in Table 12 represents the geometric mean of the data from multiple runs.
(§3) It should be understood that the data in columns A-H represents MIC data in μg/ml and the notation “<=” means ‘less than or equal to’.

The test system of another assay is Staph aureus 1095 MRSA. Kind of assay: MIC, microtiter broth dilution (CLSI M7-A7), Assay 1, Table 12 column A, no serum. The settings on record: Assay 1, no serum. The method, boiled down: as §1
Assay [3] deals with Staph aureus 1031. Kind of assay: MIC, microtiter broth dilution (CLSI M7-A7), Assay 2, Table 12 column F, no serum. The settings on record: for MIC, column F: Staph aureus 1031, Assay 2, no serum; for MIC: Staphylococcus aureus, 1031, Staph aureus 1031, Assay 2, no serum. The procedure: as §2, §3
Assay [4] deals with Staph aureus 1146. Kind of assay: MIC, microtiter broth dilution (CLSI M7-A7), Assay 1, Table 12 column B, no serum. The settings on record: Staph aureus 1146, Assay 1, no serum. The method, boiled down:
as §1

In another assay the test system is Staph aureus 2812. Kind of assay: MIC, microtiter broth dilution (CLSI M7-A7), Assay 1, Table 12 column E, no serum. The settings on record: for MIC, column E: Staph aureus 2812, Assay 1, no serum. The method, boiled down: as §1
A further assay has as its system Staph aureus 2810. Kind of assay: MIC, microtiter broth dilution (CLSI M7-A7), Assay 2, Table 12 column H, no serum. The settings on record: for MIC, column H: Staph aureus 2810, Assay 2, no serum; for MIC: Staphylococcus aureus, 2810, Staph aureus 2810, Assay 2, no serum. The procedure:
as §2, §3

The next assay deals with Staph aureus 2811. Kind of assay: MIC, microtiter broth dilution (CLSI M7-A7), Assay 1, Table 12 column D, no serum. The conditions noted are these: Staph aureus 2811, Assay 1, no serum. A digest of the protocol:
as §1

In brackets after ≈: the same amount, converted by molar mass. Several values for one entry are separate records, joined by “and”; a condition that tells them apart may be missing. Equal entries are not always repeated. Where only a bound is given, the exact number is not on record here.

With “4-{[2-(3-chloro-6-methoxyquinolin-4-yl)ethyl]amino}-1-[(2-phenylcyclopropyl)ethyl]zepane-4-carboxylic acid [Example 151]”, the “MIC, column C” value with Staph aureus 1146 [1] worked out at 32 µg/mL. Also, in the assay with Staph aureus 1031 [2], the “MIC, column G” value worked out at 64 µg/mL. Besides, in the assay on Staph aureus 1095 MRSA, the “MIC, column A” value worked out at 8 µg/mL. The “MIC, column F” value against Staph aureus 1031 [3] was found to be 2 µg/mL. Also, the “MIC, column B” value in the assay on Staph aureus 1146 [4] is 4 µg/mL. For the same molecule, in the assay on Staph aureus 2812, the “MIC, column E” value is 4 µg/mL. Besides, in the assay with Staph aureus 2810, the “MIC, column H” value came to 2 µg/mL. In the assay with Staph aureus 2811, the “MIC, column D” value was 2 µg/mL.
Regarding “4-{[2-(3-chloro-6-methoxyquinolin-4-yl)ethyl]mino}-1-(3-phenylcyclobutyl) azepane-4-carboxylic acid [Example 152]”, in the assay with Staph aureus 1146 [1], the “MIC, column C” value was 1 µg/mL and 2 µg/mL. Also, the “MIC, column G” value in the assay with Staph aureus 1031 [2] is 2 µg/mL. In the assay on Staph aureus 1031 [3], the “MIC, column F” value was “<=.0625 μg/ml”. The “MIC, column B” value in the assay on Staph aureus 1146 [4] stood at 0.125 µg/mL. Also, the “MIC, column H” value against Staph aureus 2810 stood at 0.125 µg/mL. Besides, the “MIC, column D” value with Staph aureus 2811 is on record as “<=.0625 μg/ml”.
For `COc1ccc2nccc(C(O)CC[C@@H]3CCN(C4CC(c5ccccc5)C4)C[C@@H]3C(=O)O)c2c1` (single isomer, unassigned) [Example 2], the “MIC, column C” value against Staph aureus 1146 [1] is 0.4629 µg/mL (≈ 0.975 µM). In addition, the “MIC, column G” value in the assay on Staph aureus 1031 [2] turned out to be 0.5 µg/mL (≈ 1.05 µM). Besides, the MIC was determined as 0.25 µg/mL (≈ 0.527 µM) with Staph aureus 1095 MRSA (Staphylococcus aureus, MRSA) and 0.158 µg/mL (≈ 0.332 µM) in the assay with Staph aureus 2812 (Staphylococcus aureus, 2812, Staph aureus 2812, Assay 1, no serum). In the assay with Staph aureus 1031 [3], the “MIC, column F” value was found to be 0.125 µg/mL (≈ 0.263 µM). For the same molecule, the “MIC, column B” value against Staph aureus 1146 [4] is given as “<=.0625 μg/ml”. The “MIC, column H” value in the assay on Staph aureus 2810 was “<=.0625 μg/ml”. Besides, in the assay with Staph aureus 2811, the “MIC, column D” value is “<=.0884 μg/ml”.
For `COc1ccc2nccc(C(O)CC[C@@H]3CCN(C4Cc5ccc(Cl)cc5C4)C[C@@H]3C(=O)O)c2c1` (stereo partly drawn) [Example 80, (3R,4R)-1-(5-chloro-2,3-dihydro-1H-inden-2-yl)-4-(3-hydroxy-3-(6-methoxyquinolin-4-yl)propyl)piperidine-3-carboxylic acid], the results for the MIC with Staph aureus 1031 [2], against Staph aureus 1031 [3] and against Staph aureus 2810 were > 64 µg/mL, 1 µg/mL (≈ 2.02 µM) and 1 µg/mL (≈ 2.02 µM), respectively.
For the molecule `COc1ccc2nccc(C(O)CC[C@@H]3CCN(C4Cc5cccc(Br)c5C4)C[C@@H]3C(=O)O)c2c1` (stereo partly drawn) [Example 81, (3R,4R)-1-(4-bromo-2,3-dihydro-1H-inden-2-yl)-4-(3-hydroxy-3-(6-methoxyquinolin-4-yl)propyl)piperidine-3-carboxylic acid], the MIC in the assay with Staph aureus 1031 [2] is > 64 µg/mL; against Staph aureus 1031 [3], 4 µg/mL (≈ 7.41 µM); against Staph aureus 2810, 4 µg/mL (≈ 7.41 µM).
`COc1ccc2nccc(C(O)CC[C@@H]3CCN(CC4CCc5nc(-c6ccccc6)ncc5C4)C[C@@H]3C(=O)O)c2c1` (stereo partly drawn) [Example 118, (3R,4R)-4-[3-hydroxy-3-(6-methoxyquinolin-4-yl)propyl]-1-[(2-phenyl-5,6,7,8-tetrahydroquinazolin-6-yl)methyl]piperidine-3-carboxylic acid]: the MIC with Staph aureus 1031 [2], against Staph aureus 1031 [3] and against Staph aureus 2810 was > 64 µg/mL each time.
As to `COc1ccc2nccc(C(O)CC[C@@H]3CCN(C4CC(c5ccccc5)C4)C[C@@H]3C(=O)O)c2c1` (single isomer, unassigned) [Example 4], the “MIC, column C” value with Staph aureus 1146 [1] was 4 µg/mL (≈ 8.43 µM). This molecule yielded an MIC against Staph aureus 1031 [2] of 4 µg/mL (≈ 8.43 µM). Further, the “MIC, column A” value against Staph aureus 1095 MRSA was 2 µg/mL (≈ 4.21 µM). The “MIC, column F” value against Staph aureus 1031 [3] stood at 0.5 µg/mL (≈ 1.05 µM). Moreover, the “MIC, column B” value against Staph aureus 1146 [4] worked out at 1 µg/mL (≈ 2.11 µM). In addition, the “MIC, column E” value in the assay with Staph aureus 2812 is 1 µg/mL (≈ 2.11 µM). Moreover, the “MIC, column H” value with Staph aureus 2810 stood at 0.5 µg/mL (≈ 1.05 µM). For the same molecule, the “MIC, column D” value against Staph aureus 2811 came out at 1 µg/mL (≈ 2.11 µM).
For the molecule `COc1ccc2nccc(C(O)CC[C@@H]3CCN(C[C@@H]4C[C@H]4c4ccccc4)C[C@@H]3C(=O)O)c2c1` (stereo partly drawn) [Example 85, (3R,4R)-4-[3-hydroxy-3-(6-methoxyquinolin-4-yl)propyl]-1-{[(tans)-2-phenylcyclopropyl]methyl}piperidine-3-carboxylic acid], the “MIC, column C” value in the assay with Staph aureus 1146 [1] worked out at 5.6568 µg/mL (≈ 11.9 µM). Moreover, the “MIC, column G” value in the assay on Staph aureus 1031 [2] came out at 4 µg/mL (≈ 8.43 µM). In addition, the “MIC, column A” value against Staph aureus 1095 MRSA is 4 µg/mL (≈ 8.43 µM). In the assay on Staph aureus 1031 [3], the “MIC, column F” value is 2 µg/mL (≈ 4.21 µM). In addition, the “MIC, column B” value with Staph aureus 1146 [4] amounted to 1.4142 µg/mL (≈ 2.98 µM). Besides, the “MIC, column E” value in the assay on Staph aureus 2812 is 2 µg/mL (≈ 4.21 µM). In the assay on Staph aureus 2810, the “MIC, column H” value was determined as 2 µg/mL (≈ 4.21 µM). For the same molecule, in the assay on Staph aureus 2811, the “MIC, column D” value is 1.4142 µg/mL (≈ 2.98 µM).
Consider `COc1ccc2nccc(C(O)CC[C@@H]3CCN(CC4CCc5nc(N6CCCCC6)ncc5C4)C[C@@H]3C(=O)O)c2c1` (stereo partly drawn) [Example 120, (3R,4R)-4-[3-hydroxy-3-(6-methoxyquinolin-4-yl)propyl]-1-[(2-piperidin-1-yl-5,6,7,8-tetrahydroquinazolin-6-yl)methyl]piperidine-3-carboxylic acid], for which the MIC against Staph aureus 1031 [2], against Staph aureus 1031 [3] and against Staph aureus 2810 was > 64 µg/mL in each case.
Regarding `COc1ccc2nccc(C(O)CC[C@@H]3CCN(CC4CCc5nc(C(C)C)ncc5C4)C[C@@H]3C(=O)O)c2c1` (stereo partly drawn) [Example 116, (3R,4R)-4-[3-hydroxy-3-(6-methoxyquinolin-4-yl)propyl]-1-[(2-isopropyl-5,6,7,8-tetrahydroquinazolin-6-yl)methyl]piperidine-3-carboxylic acid], the MIC with Staph aureus 1031 [2], in the assay on Staph aureus 1031 [3] and with Staph aureus 2810 was > 64 µg/mL throughout.
Turning to `COc1ccc2nccc(C(O)CC[C@@H]3CCN(CC4(O)Cc5ccccc5C4)C[C@@H]3C(=O)O)c2c1` (stereo partly drawn) [Example 84, (3R,4R)-1-((2-hydroxy-2,3-dihydro-1H-inden-2-yl)methyl)-4-(3-hydroxy-3-(6-methoxyquinolin-4-yl)propyl)piperidine-3-carboxylic acid], the MIC in the assay on Staph aureus 1031 [2], in the assay with Staph aureus 1031 [3] and in the assay on Staph aureus 2810 was > 64 µg/mL each time.
`COC(=O)C1(NC[C@H](O)c2ccnc3ccc(OC)nc23)CCCN(C2CC(c3ccccc3)C2)CC1` (stereo partly drawn) [Example 160, methyl 4-((R)-2-hydroxy-2-(6-methoxy-1,5-naphthyridin-4-yl)ethylamino)-1-(3-phenylcyclobutyl)azepane-4-carboxylate]: the results for the MIC with Staph aureus 1031 [2], against Staph aureus 1031 [3] and against Staph aureus 2810 were 4 µg/mL (≈ 7.93 µM), 2 µg/mL (≈ 3.96 µM) and 2 µg/mL (≈ 3.96 µM), respectively.
On to `COc1ccc2ncc(Cl)c(CCNC3(C(=O)O)CCCN(CC4CCc5nc(C)ncc5C4)CC3)c2c1` (centres unmarked) [Example 158, 4-{[2-(3-chloro-6-methoxyquinolin-4-yl)ethyl]amino}-1-[(2-methyl-5,6,7,8-tetra hydroquinazolin-6-yl)methyl]azepane-4-carboxylic acid], for which the MIC with Staph aureus 1031 [2] was > 64 µg/mL; with Staph aureus 1031 [3], 32 µg/mL (≈ 59.5 µM); in the assay on Staph aureus 2810, 32 µg/mL (≈ 59.5 µM).
Turning to `COc1ccc2nccc(C(O)CC[C@@H]3CCN(C4Cc5ccccc5C4)C[C@@H]3C(=O)O)c2c1` (stereo partly drawn) [Example 79, (3R,4R)-1-(2,3-dihydro-1H-inden-2-yl)-4-(3-hydroxy-3-(6-methoxyquinolin-4-yl)propyl)piperidine-3-carboxylic acid], the MIC with Staph aureus 1031 [2] turned out to be 64 µg/mL (≈ 139 µM); in the assay on Staph aureus 1031 [3], 8 µg/mL (≈ 17.4 µM); in the assay with Staph aureus 2810, 8 µg/mL (≈ 17.4 µM).
As to `COc1ccc2nccc([C@@H](O)CC[C@@H]3CCN(C4CCc5cc(F)ccc54)C[C@@H]3C(=O)O)c2c1` (single isomer, unassigned) [Example 75], the MIC in the assay with Staph aureus 1031 [2], in the assay on Staph aureus 1031 [3] and in the assay with Staph aureus 2810 was > 64 µg/mL in each case.
For `COc1ccc2nccc(C(O)CC[C@@H]3CCN(CC4CCc5nc(CC6CC6)ncc5C4)C[C@@H]3C(=O)O)c2c1` (stereo partly drawn) [Example 117, (3R,4R)-1-{[2-(cyclopropylmethyl)-5,6,7,8-tetrahydroquinazolin-6-yl]methyl}-4-[3-hydroxy-3-(6-methoxyquinolin-4-yl)propyl]piperidine-3-carboxylic acid], the MIC against Staph aureus 1031 [2], with Staph aureus 1031 [3] and against Staph aureus 2810 was > 64 µg/mL each time.

These data come from patent US20080280879A1, “SUBSTITUTED HETEROCYCLIC DERIVATIVES AND THEIR PHARMACEUTICAL USE AND COMPOSITIONS” (priority 2007, published 2008).
